Data published in patent US12188947B2, “Marker for diagnosing atherosclerosis severity, and diagnostic method using same” (EWHA UNIVERSITY—INDUSTRY COLLABORATION FOUNDATION, priority 2018, dated 2025).
Where no end group is shown, it is not given here.

Test: Metabolic phenotype (body weight, metabolic organ weights) after LGI3 antagonist peptide injection
Assay type: in vivo, mouse
Description: LGI3 P34, made with a mouse LGI3 antagonist peptide, is a 15mer synthetic peptide containing amino acids (aa) […] (DEGRQKFVRFQELAV (SEQ ID NO:3)) of mouse Lgi3. The synthetic LGI3 peptide was dissolved in PBS and sterilized by filtration. PBS injection was used as a control for mouse experiments. All peptides were synthesized by Peptron (Seoul, Korea). Apoe^−/− mice fed a high fat diet for 16 weeks were intraperitoneally injected with PBS or the LGI3 antagonist peptide twice a week for the last 5 weeks.
Statistical analysis was performed using InStat. A two-sided Mann-Whitney U-test was used for comparison between two groups, and one-way ANOVA was used for comparisons among three or more groups. All data is presented as mean s.e.m, and P-values of ≤0.05 were considered statistically significant.

DEGRQKFVRFQELAV [LGI3 P34, DEGRQKFVRFQELAV]
epididymal fat weight (Apoe −/− mice, high fat diet 16 weeks, intraperitoneal injection for the last 5 weeks, n=9, PBS control 1.689±0.43, P=0.84): 1.58±0.51%
body weight (Apoe −/− mice, high fat diet 16 weeks, intraperitoneal injection for the last 5 weeks, n=9, PBS control 39.22±3.51, P=0.536): 38.08 ± 2.19 g
metabolic phenotype (in words) (body weight, WAT, spleen and liver weight to body weight versus control mice, FIG. 6): not changed
